Assay results taken from paper PMC12624794, “Mechanism of inhibition of acid-mediated transthyretin aggregation by designed peptides” (The Journal of Biological Chemistry, 2025).

Tests used:
[1] = system: patients with TTR amyloidosis; settings: TTR amyloidosis diagnosed at a later stage; cited from earlier work
Description: (§1) However, the efficacy of tafamidis is reduced for patients with TTR amyloidosis diagnosed at a later stage, when severe organ damage caused by TTR aggregates cannot be reversed ([12]).

[2] = system: TTR tetramer; settings: cited from earlier work
Description: as §1

[3] = system: seeded TTR aggregation; settings: extracted amyloidogenic fibrils from patients as seeds, in vitro; cited from earlier work
[4] = target: T1, TTR^F (C10S-trifluoroacetyl-S85C TTR) (Homo sapiens, UniProt P02766, C30S/S105C); test: Real-time 19F-NMR aggregation kinetics at 310 K, pH 4.4 (three-state model); type: biochemical; settings: 1 μM peptide; pH 4.4, 310 K
T1 construct: made in house
Method: At acidic pH, tetramer dissociation is favored, the misfolding of the monomeric intermediate is facilitated, and the downhill aggregation is accelerated ([1]). We used a previously reported ^19F-labeled TTR construct, C10S-trifluoroacetyl-S85C (denoted as TTR^F), to quantify TTR aggregation kinetics using real-time ^19F-NMR. […] To quantify how the presence of peptides alters TTR aggregation kinetics, we added 1 μM of each TabH2 and TabF2 as well as 1 μM ffTAD1 to 2.5 μM TTR^F (tetramer concentration) at pH 4.4 and 310 K and monitored time-dependent population kinetics for tetramer, monomer, and NMR-invisible aggregates (Fig. 3, A and B). […]
To gain kinetic insights into the aggregation pathway, we fit the time-dependent aggregation data of TTR^F using a previously reported three-state kinetic model, tetramer ↔ monomer ↔ aggregate ([18]), where tetramer and monomer are NMR-visible, and aggregates are NMR-invisible. […] Using this model, fits of the time-dependent population changes determined from peak areas yield four first-order apparent rates. […]
^19F-NMR spectra were acquired using Bruker Avance 600 or Avance 700 MHz spectrometers as previously described ([18]). […] Weighted average chemical shift perturbations (CSPs) for backbone amides were calculated using (Δδ^1H)^2+(Δδ^15N/5)^2 , where Δ δ means chemical shift differences for either ^1H or ^15N with and without peptides.

Row | Structure (SMILES) | efficacy in late-diagnosed patients [1] | binding to TTR tetramer [2] | effect on tetramer dissociation ([2]; stabilization of the tetramer) | inhibition of seeded TTR aggregation [3] | reduction of steady-state population of NMR-invisible aggregates vs TTR^F-only control [4]
1 | O=C(O)c1ccc2nc(-c3cc(Cl)cc(Cl)c3)oc2c1 [Tafamidis] | reduced | binds to the central cavity of the TTR tetramer | suppresses dissociation to monomers | does not effectively inhibit seeded TTR aggregation | 
2 | CC(C)[C@H](NC(=O)[C@H](C)NC(=O)[C@H](Cc1ccc(O)cc1)NC(=O)[C@H](CO)NC(=O)[C@@H](NC(=O)[C@@H]1CCCN1C(=O)[C@H](CC(N)=O)NC(=O)[C@@H](NC(=O)[C@@H](NC(=O)[C@H](Cc1ccc(O)cc1)NC(=O)[C@H](CO)NC(=O)[C@H](CCCNC(=N)N)NC(=O)[C@H](CCCNC(=N)N)NC(=O)[C@H](CCCNC(=N)N)NC(=O)[C@H](CCCNC(=N)N)NC(=O)[C@H](CCC(=O)O)NC(=O)[C@@H](NC(=O)[C@H](CO)NC(=O)CNC(=O)CNC(=O)CNC(=O)[C@H](CCC(=O)O)NC(=O)[C@@H](NC(=O)[C@H](Cc1ccccc1)NC(=O)[C@H](CCC(=O)O)NC(=O)[C@@H](NC(=O)[C@H](Cc1ccccc1)NC(=O)[C@@H]1CCCN1C(=O)[C@H](Cc1c[nH]cn1)NC(=O)[C@H](C)NC(=O)[C@@H](NC(=O)[C@H](Cc1c[nH]cn1)NC(=O)[C@H](CCCNC(=N)N)NC(=O)[C@H](CCCNC(=N)N)NC(=O)[C@H](CCCNC(=N)N)NC(=O)[C@H](CCCNC(=N)N)NC(=O)[C@H](Cc1c[nH]cn1)NC(=O)[C@H](Cc1c[nH]cn1)NC(=O)[C@H](Cc1c[nH]cn1)NC(=O)[C@H](Cc1c[nH]cn1)NC(=O)[C@H](Cc1c[nH]cn1)NC(=O)[C@@H](N)Cc1c[nH]cn1)C(C)C)C(C)C)[C@@H](C)O)[C@@H](C)O)C(C)C)[C@@H](C)O)[C@@H](C)O)C(=O)N[C@H](C(=O)O)[C@@H](C)O [ffTAD1] |  |  |  |  | ~8%
